# Patent US10065956B2, “Ethynyl derivatives” (Hoffmann-La Roche Inc., priority 2015, dated 2018)
# Tests used:
# mice [1] = conditions: reported by Addex 2010; cited from earlier work
# mice [2] = conditions: reported by Addex 2010; cited from earlier work; remark: listed apart in the source
# rats = conditions: cited from earlier work
# mice [3] = conditions: mice treated with MPTP; cited from earlier work
# rodent = conditions: 6-OHDA rodent model of PD; cited from earlier work
# human mGlu4 receptor = target: T1, human mGlu4 receptor (Homo sapiens, UniProt Q14833); test: Ca2+ mobilization in vitro assay on recombinant human mGlu4 expressed in HEK293 cells (PAM, L-AP4 at EC20); format: cell-based
# T1 construct: expressed in transfected cells; host or cells: monoclonal HEK-293 cell line, stably transfected
# T1 sequence (Q14833 33-912): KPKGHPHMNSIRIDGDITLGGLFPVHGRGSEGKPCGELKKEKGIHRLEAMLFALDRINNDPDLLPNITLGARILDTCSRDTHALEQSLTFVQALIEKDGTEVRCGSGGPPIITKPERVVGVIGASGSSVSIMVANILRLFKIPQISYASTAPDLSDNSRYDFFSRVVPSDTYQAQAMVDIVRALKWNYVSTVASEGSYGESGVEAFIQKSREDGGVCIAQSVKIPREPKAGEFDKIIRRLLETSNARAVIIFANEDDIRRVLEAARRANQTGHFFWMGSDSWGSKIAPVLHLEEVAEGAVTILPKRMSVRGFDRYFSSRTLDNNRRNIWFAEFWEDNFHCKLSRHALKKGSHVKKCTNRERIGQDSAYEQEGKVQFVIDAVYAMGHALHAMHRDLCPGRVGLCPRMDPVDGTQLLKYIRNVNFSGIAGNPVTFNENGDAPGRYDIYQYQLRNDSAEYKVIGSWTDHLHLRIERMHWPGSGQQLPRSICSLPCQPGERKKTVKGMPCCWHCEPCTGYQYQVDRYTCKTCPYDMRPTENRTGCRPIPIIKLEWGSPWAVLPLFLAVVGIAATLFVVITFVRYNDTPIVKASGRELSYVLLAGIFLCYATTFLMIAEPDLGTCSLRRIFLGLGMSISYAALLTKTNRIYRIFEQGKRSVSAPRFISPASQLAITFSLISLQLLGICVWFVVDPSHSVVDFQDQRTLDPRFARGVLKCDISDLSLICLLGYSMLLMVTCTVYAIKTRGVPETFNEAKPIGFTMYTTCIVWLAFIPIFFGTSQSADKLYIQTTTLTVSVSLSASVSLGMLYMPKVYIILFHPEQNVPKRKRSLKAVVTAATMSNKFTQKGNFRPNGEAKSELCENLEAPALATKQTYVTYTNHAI
structure (smiles),measurement,setting,value
Cc1ccnc(Nc2nc(-c3cn[nH]c3)c(C)s2)n1 [ADX88178],activity in marble burying test,mice [1],active
same,activity in EPM,mice [2],active
same,profile in the rat EPM test,"rats; rat, after oral dosing",anxiolytic-like profile
same,activity in EPM,"rats; rats, reported by Addex 2010",active
"O=C(Nc1ccccc1)C12CC1/C(=N\O)c1ccccc1O2 (single isomer, unassigned; (-)) [(−)-PHCCC]",nigrostriatal degeneration,mice [3],reduced nigrostriatal degeneration
"N[C@@H](CCP(=O)(O)O)C(=O)O [L-AP4, (2S)-2-amino-4-phosphonobutanoic acid]",neuroprotection in 6-OHDA model,rodent,neuroprotective effects
"COCCn1ccc([C@]2(C)CC(=O)N(c3c(F)cc(C#Cc4ccccc4)cc3F)C(=O)N2C)n1 [Example 30, (6S)-3-[2,6-Difluoro-4-(2-phenylethynyl)phenyl]-6-[1-(2-methoxyethyl)pyrazol-3-yl]-1,6-dimethyl-hexahydropyrimidine-2,4-dione]",Emax,"human mGlu4 receptor; HEK293, maximal response in % of the maximal stimulatory effect obtained with saturating concentrations of L-AP4, read-out: Eff. (%)",143%
same,EC50,"human mGlu4 receptor; HEK293 cells expressing human mGlu4, L-AP4 added at EC20",59 nM
